Where two headings read alike, the source gives them in different places.
What was measured:
[1] = Brain binding, equilibrium dialysis; assay type: in vitro ADME; conditions: brain tissue homogenate
Description: As for plasma protein binding experiments, 96-well equilibrium dialysis apparatus was used to determine the free fraction in brain tissue homogenate for each compound (HT Dialysis LLC, Gales Ferry, CT). Membranes (12–14 kDA cut-off) were conditioned in deionised water for 60 min, followed by conditioning in 80:20 deionised water: ethanol for 20 min, and then rinsed in isotonic buffer before use. Frozen brain tissue was thawed and homogenised in artificial CSF at a ratio of 3:1. Homogenate was then spiked with test compound (final concentration 10 μg/mL), and 150 μL aliquots (n = 6 replicate determinations) loaded into the 96-well equilibrium dialysis plate. Dialysis vs artificial CSF was carried out for 5 h in a temperature-controlled incubator at ca. 37 °C (Barworld Scientific Ltd, UK) using an orbital microplate shaker at 100 revolutions/minute (Barworld Scientific Ltd, UK). 150 μL aliquots of spiked homogenate were stored at 37 °C and 4 °C for the course of the experiment to determine recovery. At the end of the incubation period, 50 μL aliquots of homogenate or buffer were transferred to a 96 deepwell plate (Waters^TM) and the composition in each was balanced with control fluid (50 μL), such that the volume of buffer to brain homogenate is the same. Sample extraction was performed by the addition of 200 μL of acetonitrile containing an appropriate internal standard. Samples were allowed to mix for 1 min and then centrifuged at 3000 rpm in 96-well blocks for 15 min (Allegra X12-R, Beckman Coulter, USA), after which 150 μL of supernatant was removed to 50 μL of water. All samples were analysed by UPLC-MS/MS. The unbound fraction was determined as the ratio of the peak area in buffer to that in homogenate using the following equation:2 Afu=Buffer/Matrix where Afu means apparent fraction unbound
Buffer = Analyte/IS ratio in buffer side […]
The recovery of the dialysed samples was calculated by comparing the sum of the peak areas (buffer and matrix) of any test compound at 37 °C to that of the same compound at 4 °C. […]

[2] = biological target: T1, GSK3β-HiBiT (GSK3β-HiBiT KI HEK293 cells) (Homo sapiens, UniProt P49841); assay: HiBiT lytic degradation assay / high-throughput screen, 24 h; assay type: cell-based; conditions: 24 h treatment; for DC50: pure (resynthesised, HPLC purified) compound
T1 construct: we generated endogenously tagged GSK3β-HiBiT knock-in (KI) HEK293 cells; endogenous in cells; host or cells: GSK3β-HiBiT knock-in HEK293 cells (CRISPR/Cas9, single-cell clone)
Description: Crude compounds were assumed to be 10 mM concentration in DMSO and after generating libraries directly used in biological tests in degradation screens. Stock solutions were serially diluted into white bottom opaque 384-well plates (Perkin Elmer) using Echo500 (Labcyte) and DMSO was backfilled to maintain same DMSO content in each well for all concentrations. […] HiBiT lytic assay buffer (Promega) prepared according to the manufacturer’s instructions and added onto each well using Multidrop^TM Combi reagent dispenser. Luminescence signal was measured on PheraStar plate reader (BMG) and obtained data normalised to DMSO conditions using Excel and further analysed using GraphPad Prism (v10.1.2) and degradation curves were generated using 4-parameter non-linear regression fit to calculate DC50 and Dmax values. Data points associated with concentrations displaying a hook effect were excluded prior to DC50 and Dmax calculation.

[3] = Intrinsic clearance (Cli), rat liver microsomes; assay type: in vitro ADME; conditions: 0.5 µM, scaling factor 46 mg microsomal protein per g liver
Description: (§1) Test compound (0.5 µM) was incubated with female CD1 mouse, male rat Han Wistar and pooled human liver microsomes (Xenotech^TM; 0.5 mg/mL 50 mM potassium phosphate buffer, pH7.4) and the reaction started with addition of excess NADPH (8 mg/mL 50 mM potassium phosphate buffer, pH7.4). Immediately, at time zero, then at 3, 6, 9, 15 and 30 min an aliquot (50 µL) of the incubation mixture was removed and mixed with acetonitrile (100 uL) to stop the reaction. An internal standard was added to all samples, the samples centrifuged to sediment precipitated protein and the plates then sealed prior to UPLC-MSMS analysis (Xevo TQ-S Micro, Waters^TM). XLfit (IDBS, UK) was used to calculate the exponential decay and consequently the rate constant (k) from the ratio of peak area of test compound to internal standard at each timepoint. The rate of intrinsic clearance (CLi) of each test compound was then calculated using the following calculation:1 CLi(mL/min/gliver)=kxVxMicrosomalproteinyield Where V (mL/mg protein) is the incubation volume/mg protein added and microsomal protein yield is taken as 48 mg, 46 mg and 40 mg protein/g liver for mouse, rat and human, respectively. Verapamil (0.5 µM) was used as a positive control to confirm acceptable assay performance.

[4] = Intrinsic clearance (Cli), mouse liver microsomes; assay type: in vitro ADME; conditions: 0.5 µM, scaling factor 48 mg microsomal protein per g liver
Description: as §1

[5] = Intrinsic clearance (Cli), human liver microsomes; assay type: in vitro ADME; conditions: 0.5 µM, scaling factor 40 mg microsomal protein per g liver
Description: as §1

[6] = 10 μg/mL, 5 h dialysis, read-out: Brain Tissue Binding (Fu)
[7] = HEK293, crude mixture, stock assumed 10 mM
[8] = HEK293, pure (resynthesised, HPLC purified) compound

T1 sequence (P49841 whole entry): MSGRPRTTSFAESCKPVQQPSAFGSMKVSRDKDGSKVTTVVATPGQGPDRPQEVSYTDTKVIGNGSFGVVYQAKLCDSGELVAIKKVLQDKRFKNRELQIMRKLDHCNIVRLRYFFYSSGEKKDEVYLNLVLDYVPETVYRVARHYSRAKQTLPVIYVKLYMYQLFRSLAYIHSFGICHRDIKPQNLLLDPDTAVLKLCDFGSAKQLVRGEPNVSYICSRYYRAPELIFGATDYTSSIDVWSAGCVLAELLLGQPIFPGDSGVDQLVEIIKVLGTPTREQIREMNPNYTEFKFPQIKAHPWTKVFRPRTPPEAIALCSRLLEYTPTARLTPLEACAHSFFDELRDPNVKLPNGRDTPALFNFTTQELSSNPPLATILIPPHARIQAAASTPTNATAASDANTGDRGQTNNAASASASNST

Compound	fraction unbound at 5 h, 10 μg/mL [1, 6]	Dmax [2, 7] [%]	Dmax [2, 8] [%]	Scaled Microsomal Stability RatClint [3] [ml/min/g liver]	Scaled Microsomal Stability MuClint [4] [ml/min/g liver]	Scaled Microsomal Stability HuClint [5] [ml/min/g liver]	fraction unbound at 5 h, 10 μg/mL ([1]; brain binding, read-out: measured free fraction in brain)	DC50 ([2]; listed as KH1 (24))	DC50 ([2]; listed as KH2 (26))
O=C1CCC(NC(=O)c2ccc(CN3CCN(Cc4ccc(-c5cn(-c6ccc(-c7cn8nccc(C(=O)Nc9cnccc9N9CCOCC9)c8n7)cc6)nn5)nc4)CC3)cn2)C(=O)N1 (centres unmarked) [compound 22]	0.0029	89	87	0.71	< 0.53	3.6	–	–	–
Cn1nc(N2CCC(=O)NC2=O)c2ccc(CN3CCN(Cc4ccc(-c5cn(-c6ccc(-c7cn8nccc(C(=O)Nc9cnccc9N9CCOCC9)c8n7)cc6)nn5)nc4)CC3)cc21 [compound 24]	–	91	93	0.51	2.4	0.88	0.0012	picomolar to single-digit nanomolar range	–
Cn1nc(N2CCC(=O)NC2=O)c2ccc(CN3CCN(CCCc4cn(-c5ccc(-c6cn7nccc(C(=O)Nc8cnccc8N8CCOCC8)c7n6)cc5)nn4)CC3)cc21 [compound 26]	0.012	78	80	1.3	4.0	1.6	–	–	picomolar to single-digit nanomolar range
